# Test results reported in paper PMC12649549, “Sequence Permutation Generated Lysine and Tryptophan-Rich Antimicrobial Peptides with Enhanced Therapeutic Index” (Antibiotics, 2025).
# Read-outs that look alike come from different tables or passages of the source.
# Tests used:
# [1] = tested on: Pseudomonas aeruginosa Migula (ATCC 27853)
# Procedure, shortened: (§1)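 Broth microdilution per CLSI in Müller-Hinton broth and modified LYM broth (pH 7.4; variants with 50–300 mM NaCl, 0.5–2.5 mM MgCl2, or pH 6.5–4.5). Inoculum 5 × 10^5 CFU/mL; peptides tested at 0.78–50 µg/mL final. MIC read; three independent repeats.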
# S. aureus ATCC 33591 = tested on: S. aureus ATCC 33591
# Procedure, shortened: as §1
# [2] = tested on: Escherichia coli (ATCC 25922)
# Procedure, shortened: as §1
# S. aureus ATCC 6538 = tested on: S. aureus ATCC 6538
# Procedure, shortened: as §1
# S. aureus ATCC 25923 = tested on: S. aureus ATCC 25923
# Procedure, shortened: as §1
# [3] = tested on: A. baumannii 14B0091 (Acinetobacter sp., BCRC number 14B0091)
# Procedure, shortened: as §1
# [4] = tested on: A. baumannii 14B0097 (Acinetobacter sp., BCRC number 14B0097)
# Procedure, shortened: as §1
# [5] = LYM broth, 0 mM NaCl, 16 h, 37 °C
# [6] = LYM broth, 100 mM NaCl, 16 h, 37 °C
# [7] = LYM broth, 200 mM (NaCl), 16 h, 37 °C
# [8] = LYM broth, 300 mM (NaCl), 16 h, 37 °C
# [9] = MH broth, 5 × 10^5 CFU/mL, 16 h, 37 °C, repeated three times
# [10] = LYM broth, 50 mM NaCl, 16 h, 37 °C
substance,measurement,setting,value
Ac-LKWLAKKKKWRKW-NH2 [Peptide W5K06],MIC,[1]; [5],6.25 µg/mL
same,MIC,"[1]; LYM broth, 0.5 mM MgCl2",6.25 µg/mL
same,MIC,"[1]; LYM broth, 1.5 mM MgCl2",6.25 µg/mL
same,MIC,"[1]; LYM broth, 2.5 mM MgCl2",25 µg/mL
same,MIC,[1]; [6],25 µg/mL
same,MIC,[1]; [7],>50 µg/mL
same,MIC,[1]; [8],>50 µg/mL
same,MIC,"[1]; LYM broth, pH 4.5",25 µg/mL
same,MIC,"[1]; LYM broth, pH 5.5",6.25 µg/mL
same,MIC,"[1]; LYM broth, pH 6.5",3.13 µg/mL
same,MIC,[1]; [9],50 µg/mL
same,MIC,S. aureus ATCC 33591; [5],12.5 µg/mL
same,MIC,"S. aureus ATCC 33591; LYM broth, 0.5 mM MgCl2",12.5 µg/mL
same,MIC,"S. aureus ATCC 33591; LYM broth, 1.5 mM MgCl2",12.5 µg/mL
same,MIC,"S. aureus ATCC 33591; LYM broth, 2.5 mM MgCl2",25 µg/mL
same,MIC,S. aureus ATCC 33591; [10],25 µg/mL
same,MIC,S. aureus ATCC 33591; [6],50 µg/mL
same,MIC,S. aureus ATCC 33591; [7],50 µg/mL
same,MIC,S. aureus ATCC 33591; [8],>50 µg/mL
same,MIC,"S. aureus ATCC 33591; LYM broth, pH 4.5",12.5 µg/mL
same,MIC,"S. aureus ATCC 33591; LYM broth, pH 5.5",6.25 µg/mL
same,MIC,"S. aureus ATCC 33591; LYM broth, pH 6.5",6.25 µg/mL
same,MIC,S. aureus ATCC 33591; [9],>50 µg/mL
same,MIC,[2]; [5],6.25 µg/mL
same,MIC,"[2]; LYM broth, 0.5 mM MgCl2",6.25 µg/mL
same,MIC,"[2]; LYM broth, 1.5 mM MgCl2",6.25 µg/mL
same,MIC,"[2]; LYM broth, 2.5 mM MgCl2",6.25 µg/mL
same,MIC,[2]; [10],12.5 µg/mL
same,MIC,[2]; [6],50 µg/mL
same,MIC,[2]; [7],>50 µg/mL
same,MIC,[2]; [8],>50 µg/mL
same,MIC,"[2]; LYM broth, pH 4.5",12.5 µg/mL
same,MIC,"[2]; LYM broth, pH 5.5",6.25 µg/mL
same,MIC,"[2]; LYM broth, pH 6.5",3.13 µg/mL
same,MIC,[2]; [9],25 µg/mL
same,MIC,S. aureus ATCC 6538; [5],6.25 µg/mL
same,MIC,"S. aureus ATCC 6538; LYM broth, 0.5 mM MgCl2",3.13 µg/mL
same,MIC,"S. aureus ATCC 6538; LYM broth, 1.5 mM MgCl2",3.13 µg/mL
same,MIC,"S. aureus ATCC 6538; LYM broth, 2.5 mM MgCl2",6.25 µg/mL
same,MIC,S. aureus ATCC 6538; [10],6.25 µg/mL
same,MIC,S. aureus ATCC 6538; [6],25 µg/mL
same,MIC,S. aureus ATCC 6538; [7],50 µg/mL
same,MIC,S. aureus ATCC 6538; [8],>50 µg/mL
same,MIC,"S. aureus ATCC 6538; LYM broth, pH 4.5",6.25 µg/mL
same,MIC,"S. aureus ATCC 6538; LYM broth, pH 5.5",6.25 µg/mL
same,MIC,"S. aureus ATCC 6538; LYM broth, pH 6.5",6.25 µg/mL
same,MIC,S. aureus ATCC 6538; [9],50 µg/mL
same,MIC,S. aureus ATCC 25923; [5],6.25 µg/mL
same,MIC,"S. aureus ATCC 25923; LYM broth, 0.5 mM MgCl2",6.25 µg/mL
same,MIC,"S. aureus ATCC 25923; LYM broth, 1.5 mM MgCl2",6.25 µg/mL
same,MIC,"S. aureus ATCC 25923; LYM broth, 2.5 mM MgCl2",6.25 µg/mL
same,MIC,S. aureus ATCC 25923; [10],12.5 µg/mL
same,MIC,S. aureus ATCC 25923; [6],25 µg/mL
same,MIC,S. aureus ATCC 25923; [7],50 µg/mL
same,MIC,S. aureus ATCC 25923; [8],>50 µg/mL
same,MIC,"S. aureus ATCC 25923; LYM broth, pH 4.5",6.25 µg/mL
same,MIC,"S. aureus ATCC 25923; LYM broth, pH 5.5",6.25 µg/mL
same,MIC,"S. aureus ATCC 25923; LYM broth, pH 6.5",3.13 µg/mL
same,MIC,S. aureus ATCC 25923; [9],50 µg/mL
same,MIC,[3]; [5],3.13 µg/mL
same,MIC,"[3]; LYM broth, 0.5 mM MgCl2",3.13 µg/mL
same,MIC,"[3]; LYM broth, 1.5 mM MgCl2",3.13 µg/mL
same,MIC,"[3]; LYM broth, 2.5 mM MgCl2",3.13 µg/mL
same,MIC,[3]; [10],3.13 µg/mL
same,MIC,[3]; [6],6.25 µg/mL
same,MIC,[3]; [7],50 µg/mL
same,MIC,[3]; [8],>50 µg/mL
same,MIC,"[3]; LYM broth, pH 4.5",3.13 µg/mL
same,MIC,"[3]; LYM broth, pH 5.5",3.13 µg/mL
same,MIC,"[3]; LYM broth, pH 6.5",1.56 µg/mL
same,MIC,[3]; [9],50 µg/mL
same,MIC,[4]; [5],3.13 µg/mL
same,MIC,"[4]; LYM broth, 0.5 mM MgCl2",3.13 µg/mL
same,MIC,"[4]; LYM broth, 1.5 mM MgCl2",3.13 µg/mL
same,MIC,"[4]; LYM broth, 2.5 mM MgCl2",3.13 µg/mL
same,MIC,[4]; [10],3.13 µg/mL
same,MIC,[4]; [6],6.25 µg/mL
same,MIC,[4]; [7],50 µg/mL
same,MIC,[4]; [8],>50 µg/mL
same,MIC,"[4]; LYM broth, pH 4.5",3.13 µg/mL
same,MIC,"[4]; LYM broth, pH 5.5",3.13 µg/mL
same,MIC,"[4]; LYM broth, pH 6.5",1.56 µg/mL
same,MIC,[4]; [9],50 µg/mL
